Usually IC50 stands for the concentration needed to halve the response being measured.

The record followed here is patent US9096536B2, “Asymmetrically substituted anthrapyridazone derivatives as cytostatics” (BS-154 S.P. ZO.O., priority 2011, dated 2015).

In one test the test system is CT-DNA. Put plainly: Interaction with isolated CT-DNA, fluorescence competition with ethidium bromide. Conditions: for IC50: 50% decrease in fluorescence intensity of DNA-bromide ethydine complex; for Kapp relative constant of DNA-compound bonding: Kapp = (1.26/C50) × KEtBr, KEtBr = 10^7M. The format is binding. The text has this: It could be supposed that this property explains cytostatic activity of compounds. In Table 9 there are presented quantitative data on the affinity to DNA of tested compounds using the fluorescence method and competitive affinity to DNA of bromine ethydine and tested compounds.

The subject of another test is HL60/DX. Nature of the test: Cytostatic activity in vitro, doxorubicin-induced resistant subline (MRP). The format is cell-based, human. Conditions: for IC50: 72 h continuous exposure; for RI resistance index HL60/DX: IC50(resistant cells)/IC50(sensitive cells), HL60/DX vs HL60, 72 h. The text has this: (§1) Tables 3 and 4 show cytostatic activity in vitro of 2,6-disubstituted and 2- or 6-monosubstituted (Tab.3), and of 2,5-disubstituted-(Tab.-4) tetracyclic anthrapyridazone derivatives using leukemia cell line HL-60 and the resistant cell sublines with resistance induced by vincristine (MDR-1) or doxorubicin (MRP). Activity of compounds is differentiated depending on their structure, but in all cases resistance indexes are more advantageous in comparison with reference compounds: doxorubicin and mitoxantrone.

Test [1] deals with human prostate cancer cell line LNCaP. Put plainly: Cytostatic activity in vitro, prostate cancer LNCaP. The format is cell-based. Conditions: 72 h continuous exposure. The text has this: (§2) Table 5 presents activity in vitro of anthrapiridazone derivatives towards three cell lines of prostate cancer, naturally multidrug resistant, in comparison with references doxorubicin, mitoxantrone and taxol.

A further test has as its system HL60/VINC. Nature of the test: Cytostatic activity in vitro, vincristine-induced resistant subline (MDR-1). It is filed as cell-based, human. The note with it: for IC50: 72 h continuous exposure; for RI resistance index HL60/VINC: IC50(resistant cells)/IC50(sensitive cells), HL60/VINC vs HL60, 72 h.
Text: as §1

The subject of test [2] is human prostate cancer cell line PC3. Put plainly: Cytostatic activity in vitro, prostate cancer PC3. It is filed as cell-based. Conditions: 72 h continuous exposure.
Text: as §2

The test system of test [3] is human promyelocytic leukemia cell line HL-60. Put plainly: Cytostatic activity in vitro, HL-60 sensitive line. The format is cell-based. Conditions: 50% inhibition of cell growth after 72 h continuous exposure; read-out: HL60 IC50.
Text: as §1

The test system of test [4] is human prostate cancer cell line DU145. Put plainly: Cytostatic activity in vitro, prostate cancer DU145. The format is cell-based. The note with it: 72 h continuous exposure.
Text: as §2

For `CN(C)CCCn1nc2c3c(c(N)ccc3c1=O)C(=O)c1ccccc1-2` [PDZ-3, 2-[3-(Dimethylamino)propyl]-6-amino-2,7-dihydro-3H-dibenzo[de,h]cynnoline-3,7-dione], the IC50 with CT-DNA was 1760 ± 120 nM; in the test on HL60/DX, 919 ± 89 nM; in test [1], 549 ± 85 nM; in the test with HL60/VINC, 509 ± 54 nM; in test [2], 709 ± 163 nM; in test [3] it was 269 ± 41 nM. Further, in test [4], the half-inhibitory concentration (IC50) came to 725 ± 121 nM. For the same molecule, the Kapp relative constant of DNA-compound bonding with CT-DNA stood at 7.1e+06 M⁻¹. For the same molecule, the “RI resistance index HL60/DX” value in the test on HL60/DX is recorded as 3.4. Further, in the test with HL60/VINC, the “RI resistance index HL60/VINC” value stood at 1.9.
As for `CC(=O)Nc1ccc2c(=O)n(CCN(C)C)nc3c2c1C(=O)c1ccccc1-3` [PDZ-14, 2-[2-(Dimethylamino)ethyl]-6-(acetylamino)-2,7-dihydro-3H-dibenzo[de,h]cynnoline-3,7-dione], the IC50 with CT-DNA is 990 ± 10 nM; in the test on HL60/DX, 870 ± 173 nM; in test [1], 44.8 ± 5.6 nM; in the test on HL60/VINC it was 79 ± 7 nM; in test [2] it was 85.5 ± 10.1 nM; in test [3] it was 28 ± 6 nM. The molecule also came in with a concentration for half-maximal inhibition (IC50) in test [4] of 32.8 ± 1.4 nM. The molecule further displayed a Kapp relative constant of DNA-compound bonding in the test on CT-DNA of 1.27e+07 M⁻¹. Besides, the “RI resistance index HL60/DX” value with HL60/DX came to 31.1. In addition, the “RI resistance index HL60/VINC” value in the test on HL60/VINC is 2.8.
Take `Nc1ccc2c(=O)n(CCN3CCOCC3)nc3c2c1C(=O)c1ccccc1-3` [PDZ-4, 2-(2-Morpholinethyl)-6-amino-2,7-dihydro-3H-dibenzo[de,h]cynnoline-3,7-dione]: the half-inhibitory concentration (IC50) in the test with CT-DNA turned out to be 16800 ± 410 nM; in the test with HL60/DX, 4720 ± 389 nM; in test [1], 2790 ± 276 nM; in the test with HL60/VINC it was 2550 ± 286 nM; in test [2], 5110 ± 206 nM; in test [3] it was 2080 ± 169 nM. Also, the IC50 in test [4] is 3280 ± 355 nM. The Kapp relative constant of DNA-compound bonding with CT-DNA came out at 700000 M⁻¹. Moreover, the “RI resistance index HL60/DX” value in the test on HL60/DX came to 2.3. In addition, in the test with HL60/VINC, the “RI resistance index HL60/VINC” value is reported as 1.2.
On to `CN(C)CCn1nc2c3c(c(NCCCN)ccc3c1=O)C(=O)c1ccccc1-2` [PDZ-20, 2-[2-(Dimethylamino)ethyl]-6-[(3-aminopropyl)amino]-2,7-dihydro-3H-dibenzo [de,h]cynnoline-3,7-dione], for which the IC50 in the test on CT-DNA was found to be 220 ± 60 nM; with HL60/DX, 2600 ± 436 nM; in test [1], 31.4 ± 4.6 nM; in the test on HL60/VINC, 82.2 ± 6.1 nM; in test [2], 245 ± 36 nM; in test [3], 8.6 ± 0.9 nM. The half-inhibitory concentration (IC50) in test [4] stood at 47.3 ± 11.5 nM. In addition, the Kapp relative constant of DNA-compound bonding with CT-DNA is 5.79e+07 M⁻¹. Moreover, the “RI resistance index HL60/DX” value in the test with HL60/DX was found to be 302.2. The “RI resistance index HL60/VINC” value in the test with HL60/VINC stood at 9.6.
Turning to `CC(CNc1ccc2c(=O)n(CC(C)N(C)C)nc3c2c1C(=O)c1ccccc1-3)N(C)C` (centres unmarked) [Compound C-123, 2-[2-(Dimethylamino)propyl]-6-{[2-(dimethylamino)propyl]amino}-2,7-dihydro-3H-dibenzo[de,h]cynnoline-3,7-dione], the IC50 with CT-DNA was 310 ± 40 nM; in the test on HL60/DX, 827 ± 145 nM; in test [1], 52.9 ± 12.1 nM; in the test with HL60/VINC, 58 ± 6 nM; in test [2], 127 ± 38.6 nM; in test [3], 8.7 ± 0.5 nM. The molecule also returned an IC50 in test [4] of 25.6 ± 2.6 nM. The molecule also registered a Kapp relative constant of DNA-compound bonding in the test with CT-DNA of 4.04e+07 M⁻¹. The “RI resistance index HL60/DX” value in the test on HL60/DX came to 95.1. Moreover, the “RI resistance index HL60/VINC” value in the test on HL60/VINC was found to be 6.7.
With `CC(=O)NCCCNc1ccc2c(=O)n(CCN(C)C)nc3c2c1C(=O)c1ccccc1-3` [PDZ-13, 2-[2-(Dimethylamino)ethyl]-6-[(3-acetylaminopropyl)amino]-2,7-dihydro-3H-dibenzo [de,h]cynnoline-3,7-dione], the IC50 in the test on CT-DNA came to 1840 ± 160 nM; in the test on HL60/DX, 3240 ± 558 nM; in test [1] it was 50.7 ± 10.2 nM; with HL60/VINC, 421 ± 24 nM; in test [2], 106 ± 5.7 nM; in test [3], 13 ± 1 nM. For the same molecule, in test [4], the IC50 is 36.7 ± 7.4 nM. In the test on CT-DNA, the Kapp relative constant of DNA-compound bonding is 6.8e+06 M⁻¹. In the test with HL60/DX, the “RI resistance index HL60/DX” value was found to be 249.2. Besides, in the test with HL60/VINC, the “RI resistance index HL60/VINC” value is recorded as 32.4.
`O=C1c2ccccc2-c2n[nH]c(=O)c3ccc(NCCNCc4ccccc4)c1c23` [PDZ-10, 6-(2-Benzylaminoetyloamino)-2,7-dihydro-3H-dibenzo[de,h]cynnoline-3,7-dione]: the half-inhibitory concentration (IC50) worked out at 3150 ± 150 nM in the test on CT-DNA; 2770 ± 494 nM in the test with HL60/DX; 1550 ± 363 nM in test [1]; 1160 ± 93 nM in the test on HL60/VINC; 3010 ± 264 nM in test [2]; 758 ± 115 nM in test [3]. Also, the IC50 in test [4] turned out to be 2090 ± 583 nM. In the test on CT-DNA, this molecule registered a Kapp relative constant of DNA-compound bonding of 4e+06 M⁻¹. In addition, in the test on HL60/DX, the “RI resistance index HL60/DX” value is 3.7. Further, in the test on HL60/VINC, the “RI resistance index HL60/VINC” value was determined as 1.5.
On to `CN(C)CCn1nc2c3c(cccc3c1=O)C(=O)c1ccccc1-2` [PDZ-15, 2-[2-(Dimethylamino)ethyl]-2,7-dihydro-3H-dibenzo[de,h]cynnoline-3,7-dione], for which the IC50 turned out to be 3080 ± 190 nM in the test on CT-DNA; 3060 ± 992 nM in the test on HL60/DX; 323 ± 34 nM in test [1]; 489 ± 68 nM in the test with HL60/VINC; 963 ± 171 nM in test [2]; 213 ± 64 nM in test [3]. Moreover, the IC50 in test [4] worked out at 462 ± 52 nM. The Kapp relative constant of DNA-compound bonding with CT-DNA came to 4.1e+06 M⁻¹. In the test on HL60/DX, the “RI resistance index HL60/DX” value came out at 14.4. For the same molecule, the “RI resistance index HL60/VINC” value in the test on HL60/VINC was determined as 2.3.
For `CCN(CC)CCNc1ccc2c(=O)n(CCN(C)C)nc3c2c1C(=O)c1ccccc1-3` [Compound C-155, 2-[2-(Dimethylamino)ethyl]-6-{[(2-diethylamino)ethyl]amino}-2,7-dihydro-3H-dibenzo[de,h]cynnoline-3,7-dione], the half-inhibitory concentration (IC50) in the test with CT-DNA is 310 ± 10 nM; in the test on HL60/DX, 446 ± 100 nM; in test [1], 26.2 ± 7.2 nM; in the test with HL60/VINC it was 116 ± 28 nM; in test [2], 144 ± 32.7 nM; in test [3], 19 ± 4 nM. The IC50 in test [4] stood at 71.4 ± 21.6 nM. In the test on CT-DNA, this molecule gave a Kapp relative constant of DNA-compound bonding of 4.02e+07 M⁻¹. Further, the “RI resistance index HL60/DX” value in the test on HL60/DX is 23.5. In addition, the “RI resistance index HL60/VINC” value in the test with HL60/VINC was 6.1.
For the molecule `CN(C)CCn1nc2c3c(c(NCCNCCO)ccc3c1=O)C(=O)c1ccccc1-2` [Compound C-165, 2-[2-(Dimethylamino)ethyl]-6-[2-(2-aminoethylamino)ethanolo]-2,7-dihydro-3H-dibenzo[de,h]cynnoline-3,7-dione], the IC50 with CT-DNA is 370 ± 80 nM; in the test with HL60/DX, 706 ± 57 nM; in test [1], 8.1 ± 1 nM; with HL60/VINC it was 30.8 ± 4 nM; in test [2] it was 51.6 ± 12.4 nM; in test [3], 2.1 ± 0.4 nM. In addition, it took 14.3 ± 3.3 nM to reach half-maximal inhibition in test [4] (IC50). The Kapp relative constant of DNA-compound bonding in the test on CT-DNA worked out at 3.44e+07 M⁻¹. The “RI resistance index HL60/DX” value in the test with HL60/DX came out at 336.2. Also, the “RI resistance index HL60/VINC” value in the test with HL60/VINC is given as 14.7.
Take `CCN(CC)CCNc1ccc2c(=O)[nH]nc3c2c1C(=O)c1ccccc1-3` [PDZ-18, 6-(2-Diethylaminoethyloamino)-2,7-dihydro-3H-dibenzo[de,h]cynnoline-3,7-dione]: the IC50 in the test on CT-DNA came out at 1960 ± 120 nM; in the test with HL60/DX, 3500 ± 752 nM; in test [1], 465 ± 121 nM; in the test on HL60/VINC it was 597 ± 16 nM; in test [2], 974 ± 159 nM; in test [3], 115 ± 3 nM. For the same molecule, in test [4], it took 418 ± 58 nM to reach half-maximal inhibition (IC50). The molecule further showed a Kapp relative constant of DNA-compound bonding in the test on CT-DNA of 6.4e+06 M⁻¹. Moreover, the “RI resistance index HL60/DX” value with HL60/DX amounted to 30.4. In the test on HL60/VINC, the “RI resistance index HL60/VINC” value amounted to 5.2.
